Data set [1] has as its system Yellow fever virus. The data set is described as follows: Antiviral activity against Yellow fever virus infected Syrian hamster BHK-21 cells assessed as protection against virus-induced cytopathogenicity treated 1 hr after viral infection measured after 3-4 days by MTT method. The format is functional, organism-based.
Data set [2] relates to Vesicular stomatitis virus. Put plainly: Antiviral activity against Vesicular stomatitis virus infected African green monkey Vero 76 cells assessed as reduction in plaque number treated after viral infection measured after 2 days by plaque reduction assay. The format is functional, organism-based. The following applies: 48 h. In general terms: Plaque reduction counts the foci of infection that form in a cell layer.

Data set [3] is described as follows: Cytotoxicity against Homo sapiens (human) MT4 cells assessed as inhibition of cell vaibility after 96 hr by MTT assay. It counts as cell-based. In general terms: Tetrazolium dyes change colour on reduction, which living cells bring about.
A short description of data set [4]: Cytotoxicity against Mesocricetus auratus (Syrian golden hamster) BHK21cells assessed as inhibition of cell viability after 48 to 120 hr by MTT assay. The conditions noted are these: BHK-21 cells. The format is cell-based.
The subject of data set [5] is Respiratory syncytial virus. The data set is described as follows: Antiviral activity against Respiratory syncytial virus infected African green monkey Vero 76 cells assessed as reduction in plaque number treated after viral infection measured after 5 days by plaque reduction assay. The format is functional, organism-based. The conditions noted are these: human respiratory syncytial virus, 120 h.

Data set [6] deals with Vaccinia virus. The data set is described as follows: Antiviral activity against Vaccinia virus infected African green monkey Vero 76 cells assessed as reduction in plaque number treated after viral infection measured after 3 days by plaque reduction assay. The format is functional, organism-based. The following applies: Orthopoxvirus vaccinia, 72 h.
The subject of data set [7] is Human alphaherpesvirus 1. Put plainly: Antiviral activity against Human herpesvirus 1 infected African green monkey Vero 76 cells assessed as reduction in plaque number treated after viral infection measured after 3 days by plaque reduction assay. It counts as functional, organism-based. The following applies: Human alphaherpesvirus 1, Vero, 72 h.
For data set [8], the system named is Bovine viral diarrhea virus 1. Put plainly: Antiviral activity against Bovine viral diarrhea virus 1 infected bovine MDBK cells assessed as protection against virus-induced cytopathogenicity treated 1 hr after viral infection measured after 3-4 days by MTT method. The following applies: Bovine viral diarrhea virus isolates and strains. The format is functional, organism-based.

Data set [9] in a line: Cytotoxicity against Chlorocebus aethiops (African green monkey) Vero 76 cells assessed as inhibition of cell viability after 48 to 120 hr by MTT assay. It counts as cell-based. The conditions noted are these: chlorocebus sabaeus.
Data set [10] deals with Coxsackievirus B2. Put plainly: Antiviral activity against Human coxsackievirus B2 infected in African green monkey Vero 76 cells assessed as reduction in plaque number treated after viral infection measured after 3 days by plaque reduction assay. The format is functional, organism-based. The following applies: Enterovirus B, 72 h.
In data set [11] the test system is Mammalian orthoreovirus 1. Put plainly: Antiviral activity against Mammalian orthoreovirus 1 infected Syrian hamster BHK-21 cells assessed as protection against virus-induced cytopathogenicity treated 1 hr after viral infection measured after 3-4 days by MTT method. The format is functional, organism-based. The following applies: Mammalian orthoreovirus 1, BHK-21. On the technique in general: Cytopathic effects are the visible damage that an infection or toxin causes in cultured cells.

Data set [12] in a line: Cytotoxicity against Bos taurus (bovine) MDBK cells assessed as inhibition of cell viability after 48 to 120 hr by MTT assay. It counts as cell-based. The following applies: cattle.
In data set [13] the test system is Poliovirus 1. The data set is described as follows: Antiviral activity against Human poliovirus 1 strain Sabin infected African green monkey Vero 76 cells assessed as reduction in plaque number treated after viral infection measured after 2 days by plaque reduction assay. The format is functional, organism-based. The conditions noted are these: Enterovirus C, 48 h.

The subject of data set [14] is Human immunodeficiency virus 1. The data set is described as follows: Antiviral activity against Human immunodeficiency virus 1 infected human MT4 cells assessed as protection against virus-induced cytopathogenicity treated before viral infection measured after 4 days by MTT assay. It counts as functional, organism-based. The following applies: Human immunodeficiency virus 1, MT4, 96 h.

Experimental findings from ChEMBL document CHEMBL3046811, “Syntheses and in vitro biological screening of 1-aryl-10H-[1,2,4]triazolo[3,4:3,4][1,2,4]triazino[5,6-b]indoles” (Med Chem Res, 2013) are described below.

`Oc1ccc(-c2nnc3nnc4c5ccccc5[nH]c4n23)cc1`: the EC50 in [1], in data set [2], in data set [5], in [6], in data set [7] and in data set [8] was more than 100 µM in each case. Moreover, the EC50 in [10], in [11], in data set [13] and in data set [14] was more than 100 µM each time. Besides, the CC50 at 96 h in data set [3] is more than 100 µM. Besides, the CC50 in data set [4], in data set [9] and in [12] was more than 100 µM in each case.

In the case of `Clc1ccc(-c2nnc3nnc4c5ccccc5[nH]c4n23)cc1`, the concentration giving a half-maximal response (EC50) in data set [1], in data set [2], in data set [5], in data set [6], in [7] and in data set [8] was more than 100 µM in each case. For the same compound, the half-maximal effective concentration (EC50) in data set [10], in data set [11], in [13] and in data set [14] was more than 100 µM throughout. In addition, the half-maximal cytotoxic concentration (CC50) at 96 h in [3] is more than 100 µM. Also, the CC50 in [4], in data set [9] and in [12] was more than 100 µM in each case.

For `O=[N+]([O-])c1cccc(-c2nnc3nnc4c5ccccc5[nH]c4n23)c1`, the EC50 in data set [1], in data set [2], in [5], in data set [6], in data set [7] and in data set [8] was more than 100 µM throughout. The EC50 in data set [10], in data set [11], in [13] and in data set [14] was more than 100 µM in each case. Moreover, the CC50 at 96 h in data set [3] was more than 100 µM. The CC50 in [4], in data set [9] and in [12] was more than 100 µM each time.

On to `O=[N+]([O-])c1ccc(-c2nnc3nnc4c5ccccc5[nH]c4n23)cc1`, for which the EC50 in data set [1], in [2], in data set [5], in data set [6], in data set [7] and in data set [8] was more than 100 µM each time. Further, the EC50 in [10], in [11], in data set [13] and in [14] was more than 100 µM in each case. Further, the CC50 at 96 h in [3] is more than 100 µM. The CC50 in [4], in [9] and in [12] was more than 100 µM in each case.

Turning to `c1ccc(-c2nnc3nnc4c5ccccc5[nH]c4n23)cc1`, the EC50 in data set [1], in [2], in data set [5], in data set [6], in data set [7] and in data set [8] was more than 100 µM throughout. Also, the EC50 in data set [10], in data set [11], in data set [13] and in data set [14] was more than 100 µM in each case. For the same compound, the half-maximal cytotoxic concentration (CC50) at 96 h in [3] was more than 100 µM. In addition, the CC50 in data set [4], in data set [9] and in [12] was more than 100 µM throughout.

For the compound `O=[N+]([O-])c1ccccc1-c1nnc2nnc3c4ccccc4[nH]c3n12`, the EC50 in [1], in data set [2], in data set [5], in [6], in data set [7] and in data set [8] was more than 100 µM throughout. Also, the EC50 in data set [10] is 100 µM; in data set [11], more than 100 µM; in [13], more than 100 µM; in [14] it was more than 100 µM. Moreover, the half-maximal cytotoxic concentration (CC50) at 96 h in [3] was more than 100 µM. Also, the CC50 in data set [4], in data set [9] and in data set [12] was more than 100 µM throughout.

With `c1ccc(Oc2cccc(-c3nnc4nnc5c6ccccc6[nH]c5n34)c2)cc1`, the EC50 is more than 100 µM in data set [1]; more than 80 µM in [2]; more than 80 µM in data set [5]; more than 80 µM in data set [6]; more than 80 µM in [7]; more than 100 µM in data set [8]. The EC50 in data set [10] is more than 80 µM; in [11], more than 100 µM; in data set [13] it was more than 80 µM; in [14], more than 100 µM. In addition, the CC50 at 96 h in data set [3] was more than 100 µM. The 50% cytotoxic concentration (CC50) in data set [4] is 100 µM; in [9] it was 80 µM; in data set [12] it was more than 100 µM.

`COc1ccc(OC)c(-c2nnc3nnc4c5ccccc5[nH]c4n23)c1`: the 50% effective concentration (EC50) in data set [1] is more than 30 µM; in data set [2] it was more than 15 µM; in [5], more than 15 µM; in data set [6], more than 15 µM; in [7] it was more than 15 µM; in [8], more than 12 µM. The concentration for a half-maximal effect (EC50) was more than 15 µM in [10], more than 30 µM in data set [11], more than 15 µM in data set [13] and more than 4 µM in data set [14]. The 50% cytotoxic concentration (CC50) at 96 h in [3] came out at 4 µM. For the same compound, the CC50 in data set [4] is 30 µM; in data set [9], 15 µM; in data set [12] it was 12 µM.

For the compound `COc1cccc(-c2nnc3nnc4c5ccccc5[nH]c4n23)c1`, the 50% effective concentration (EC50) is more than 100 µM in data set [1]; more than 65 µM in data set [2]; more than 65 µM in [5]; more than 65 µM in data set [6]; more than 65 µM in data set [7]; more than 64 µM in data set [8]. For the same compound, the concentration giving a half-maximal response (EC50) was more than 65 µM in data set [10], more than 100 µM in data set [11], more than 65 µM in data set [13] and more than 47 µM in [14]. Besides, the CC50 at 96 h in data set [3] came out at 47 µM. The half-maximal cytotoxic concentration (CC50) is more than 100 µM in data set [4], 65 µM in data set [9] and 64 µM in [12].

In the case of `COc1ccccc1-c1nnc2nnc3c4ccccc4[nH]c3n12`, the 50% effective concentration (EC50) in [1] is more than 23 µM; in data set [2] it was more than 20 µM; in data set [5], more than 20 µM; in data set [6] it was more than 20 µM; in [7] it was more than 20 µM; in data set [8], more than 17 µM. Further, the EC50 in [10] was more than 20 µM; in data set [11], more than 23 µM; in [13], more than 20 µM; in [14] it was more than 5 µM. In data set [3], the half-maximal cytotoxic concentration (CC50) at 96 h is 5 µM. Besides, the CC50 in [4] was 23 µM; in data set [9], 20 µM; in [12], 17 µM.

For the compound `Oc1ccccc1-c1nnc2nnc3c4ccccc4[nH]c3n12`, the EC50 in data set [1] is more than 100 µM; in data set [2], more than 70 µM; in [5], more than 70 µM; in [6], more than 70 µM; in data set [7], more than 70 µM; in [8] it was more than 100 µM. Besides, the half-maximal effective concentration (EC50) in data set [10] was more than 70 µM; in [11], more than 100 µM; in [13], more than 70 µM; in [14] it was more than 100 µM. Further, in data set [3], the 50% cytotoxic concentration (CC50) at 96 h was more than 100 µM. The cytotoxic concentration (CC50) in [4] was more than 100 µM; in [9] it was 70 µM; in data set [12], more than 100 µM.

For the compound `Oc1cccc(-c2nnc3nnc4c5ccccc5[nH]c4n23)c1`, the concentration for a half-maximal effect (EC50) in data set [1], in data set [2], in [5], in [6], in data set [7] and in data set [8] was more than 100 µM in each case. Besides, the EC50 in data set [10], in data set [11], in [13] and in data set [14] was more than 100 µM in each case. The 50% cytotoxic concentration (CC50) at 96 h in data set [3] is more than 100 µM. Further, the CC50 in data set [4], in data set [9] and in data set [12] was more than 100 µM throughout.

Turning to `Cc1ccc(-c2nnc3nnc4c5ccccc5[nH]c4n23)cc1`, the concentration giving a half-maximal response (EC50) in data set [1], in data set [2], in data set [5], in [6], in data set [7] and in [8] was more than 100 µM in each case. Besides, the EC50 in data set [10], in data set [11], in data set [13] and in data set [14] was more than 100 µM each time. The half-maximal cytotoxic concentration (CC50) at 96 h in [3] was more than 100 µM. For the same compound, the figures for the CC50 in [4], in data set [9] and in data set [12] were more than 100 µM, not below 100 µM and more than 100 µM, respectively.

Consider `C[C@@]1(O)[C@H](O)[C@@H](CO)O[C@H]1n1cnc2c(=O)[nH]c(N)nc21` [2'-B-METHYL-GUANOSINE], for which the EC50 in data set [1] was 2.5 µM; in data set [8], 1.8 µM.

On to `C#C[C@@]1(O)[C@H](O)[C@@H](CO)O[C@H]1n1ccc(N)nc1=O` [2'-ETHYNYL-D-CYTIDINE], for which the half-maximal effective concentration (EC50) was determined as 23 µM in data set [10] and 18 µM in data set [13].

On to `COc1c(C)c2c(c(O)c1C/C=C(\C)CCC(=O)O)C(=O)OC2` [MYCOPHENOLIC ACID], for which the EC50 in [6] was found to be 1.8 µM.

For the compound `Cc1cn([C@H]2C[C@H](N=[N+]=[N-])[C@@H](CO)O2)c(=O)[nH]c1=O` [ZIDOVUDINE], the 50% effective concentration (EC50) in [14] is 0.01 µM.

The term EC50 denotes the concentration that produces a half-maximal response. What is called CC50 is the concentration at which the toxic effect on the cells reaches its halfway point.
